The source of these data is ChEMBL document CHEMBL4145635, “Applying Molecular Networking for the Detection of Natural Sources and Analogues of the Selective Gq Protein Inhibitor FR900359” (J Nat Prod, 2018).

*1 amine or outer side, *2 acyl side, *3 side chain or, on linkers, in order; H or OH if unused. Where a SMILES comes first, the peptide text is derived from it. Bridges are numbered along the chain shown (N, C = ends). [ ]: non-standard residue; d: D form. The star is where a group is joined. Leu(3R-O(AcLeu(3R-OH))) = CC(=O)N[C@H](C(=O)O[C@H](C(C)C)[C@H](N)C(=O)O)[C@H](O)C(C)C; Leu(3R-OH,Nα-propionyl) = CCC(=O)N[C@H](C(=O)*)[C@H](O)C(C)C; X1 = CC(C)[C@@H](O[*:3])[C@H](N[*:1])C(=O)[*:2]; NMeT = CN[C@H](C(=O)O)[C@@H](C)O; dPhLac = O=C(O)[C@H](O)Cc1ccccc1; NMeA = CN[C@@H](C)C(=O)O; NMeDha = C=C(NC)C(=O)O

A short description of assay [1]: Displacement of [3H]PSB-15900 from Gq (unknown origin) expressed in platelet cell membranes. Set-up: species or system Homo sapiens.
Assay [2] can be described thus: Inhibition of Gq (unknown origin) coupled with muscarinic M1 receptor expressed in CHO cells assessed as reduction in carbachol-induced IP1 accumulation pretreated for 1 hr followed by carbachol addition measured after 35 mins by HTRF assay. It is filed as cell-based. (TR-FRET usually uses a lanthanide donor and a delayed reading to cut background.)

For the compound `C=C1C(=O)N[C@@H](C)C(=O)N(C)[C@@H](C)C(=O)N[C@@H]([C@H](OC(=O)[C@@H](NC(=O)CC)[C@H](O)C(C)C)C(C)C)C(=O)N(C)[C@@H]([C@@H](C)OC)C(=O)O[C@H](C(C)C)[C@H](NC(C)=O)C(=O)O[C@H](Cc2ccccc2)C(=O)N1C` (Ac-[X1][dPhLac][NMeDha]A[NMeA][X1](Leu(3R-OH,Nα-propionyl))[NMeT](Me); ester 1-C), the pIC50 (as a rule, −log10 of the IC50, conventionally taken in molar units) in assay [1] lay in the range of 7.79 to 8.64. The IC50 (commonly the point on the concentration scale where inhibition reaches its midpoint) in assay [2] is 2.29 to 16.2 nM.
In the case of `C=C1C(=O)N[C@@H](C)C(=O)N(C)[C@@H](C)C(=O)N[C@@H]([C@H](OC(=O)[C@@H](NC(C)=O)[C@H](O)C(C)C)C(C)C)C(=O)N(C)[C@@H]([C@@H](C)OC)C(=O)O[C@H](C(C)C)[C@H](NC(C)=O)C(=O)O[C@H](Cc2ccccc2)C(=O)N1C` (Ac-[X1][dPhLac][NMeDha]A[NMeA][Leu(3R-O(AcLeu(3R-OH)))][NMeT](Me); ester 1-C), the pIC50 in assay [1] lay in the range of 7.79 to 8.64. Further, the IC50 in assay [2] is 2.29 to 16.2 nM.
The matching figures for `C=C1C(=O)N[C@@H](C)C(=O)N(C)[C@@H](C)C(=O)N[C@@H]([C@H](OC(=O)[C@@H](NC(=O)CC)[C@H](O)C(C)C)C(C)C)C(=O)N(C)[C@@H]([C@@H](C)OC)C(=O)O[C@H](C(C)C)[C@H](NC(=O)CCO)C(=O)O[C@H](Cc2ccccc2)C(=O)N1C`: 7.79 to 8.64 and 2.29 to 16.2 nM.
